This note sets out measurements from ChEMBL document CHEMBL5678818, “Discovery of potent SOS1 inhibitors that block RAS activation via disruption of the RAS-SOS1 interaction” (Proc Natl Acad Sci U S A, 2019).

The target in experiment [1] is Interferon-induced, double-stranded RNA-activated protein kinase (Homo sapiens) (UniProt P19525). Nature of the experiment: Inhibition of PRKR (unknown origin) assessed as residual activity at 1000 nM by KINOMEscan analysis relative to control.
Experiment [2] deals with Phosphatidylinositol 4,5-bisphosphate 3-kinase catalytic subunit alpha isoform (Homo sapiens), P42336 [I800L]. Briefly: Inhibition of PIK3CA I800L mutant (unknown origin) assessed as residual activity at 1000 nM by KINOMEscan analysis relative to control.
Sequence of Phosphatidylinositol 4,5-bisphosphate 3-kinase catalytic subunit alpha isoform (Homo sapiens), P42336 [I800L] (P42336 whole entry I800L, canonical isoform): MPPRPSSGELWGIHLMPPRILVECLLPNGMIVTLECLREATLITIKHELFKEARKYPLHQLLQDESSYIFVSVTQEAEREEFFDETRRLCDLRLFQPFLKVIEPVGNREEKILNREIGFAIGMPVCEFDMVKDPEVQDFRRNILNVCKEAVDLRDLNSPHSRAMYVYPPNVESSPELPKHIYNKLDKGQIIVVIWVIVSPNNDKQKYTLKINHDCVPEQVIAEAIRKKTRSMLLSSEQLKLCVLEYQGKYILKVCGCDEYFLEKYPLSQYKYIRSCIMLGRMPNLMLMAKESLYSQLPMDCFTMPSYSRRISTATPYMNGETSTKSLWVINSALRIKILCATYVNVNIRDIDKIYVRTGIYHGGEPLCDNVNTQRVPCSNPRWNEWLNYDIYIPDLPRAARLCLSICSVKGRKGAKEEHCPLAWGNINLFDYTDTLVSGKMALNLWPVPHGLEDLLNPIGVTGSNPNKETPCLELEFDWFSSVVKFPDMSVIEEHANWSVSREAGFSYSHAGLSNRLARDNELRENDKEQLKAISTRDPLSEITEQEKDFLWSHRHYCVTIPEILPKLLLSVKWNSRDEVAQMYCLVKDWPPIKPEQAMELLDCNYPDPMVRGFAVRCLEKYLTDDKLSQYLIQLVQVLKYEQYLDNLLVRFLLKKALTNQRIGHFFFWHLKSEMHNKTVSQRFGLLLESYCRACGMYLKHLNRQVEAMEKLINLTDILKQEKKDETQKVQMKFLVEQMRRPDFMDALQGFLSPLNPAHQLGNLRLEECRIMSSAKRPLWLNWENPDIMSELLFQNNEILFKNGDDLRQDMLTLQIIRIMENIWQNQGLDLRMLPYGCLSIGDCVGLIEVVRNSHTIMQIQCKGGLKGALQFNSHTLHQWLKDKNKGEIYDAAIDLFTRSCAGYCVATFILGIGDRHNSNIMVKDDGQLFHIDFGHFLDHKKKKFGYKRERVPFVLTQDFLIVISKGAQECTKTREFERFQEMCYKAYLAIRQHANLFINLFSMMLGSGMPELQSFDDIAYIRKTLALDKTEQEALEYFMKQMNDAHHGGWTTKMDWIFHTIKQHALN
Experiment [3] deals with T1, Protein kinase C epsilon type (Homo sapiens) (UniProt Q02156).
T1 sequence (whole entry): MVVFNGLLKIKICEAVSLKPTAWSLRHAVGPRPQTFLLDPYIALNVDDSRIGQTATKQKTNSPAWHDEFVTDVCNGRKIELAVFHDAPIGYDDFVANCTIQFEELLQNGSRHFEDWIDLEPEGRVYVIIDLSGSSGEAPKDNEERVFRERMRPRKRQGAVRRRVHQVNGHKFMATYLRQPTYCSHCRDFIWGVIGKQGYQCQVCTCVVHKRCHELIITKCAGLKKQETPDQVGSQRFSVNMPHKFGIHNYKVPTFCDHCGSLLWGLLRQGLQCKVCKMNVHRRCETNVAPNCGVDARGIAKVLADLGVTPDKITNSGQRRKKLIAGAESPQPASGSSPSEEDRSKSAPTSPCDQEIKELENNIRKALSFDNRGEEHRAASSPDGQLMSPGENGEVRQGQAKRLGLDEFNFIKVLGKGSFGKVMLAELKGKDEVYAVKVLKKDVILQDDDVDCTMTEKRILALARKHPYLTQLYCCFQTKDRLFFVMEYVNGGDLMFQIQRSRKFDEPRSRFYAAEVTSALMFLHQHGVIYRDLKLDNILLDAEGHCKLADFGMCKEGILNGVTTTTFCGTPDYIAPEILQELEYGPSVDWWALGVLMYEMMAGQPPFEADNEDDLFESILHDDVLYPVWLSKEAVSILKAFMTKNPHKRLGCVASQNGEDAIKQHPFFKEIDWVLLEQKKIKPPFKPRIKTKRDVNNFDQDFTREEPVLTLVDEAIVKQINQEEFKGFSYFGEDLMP
Briefly: Inhibition of PRKCE (unknown origin) assessed as residual activity at 1000 nM by KINOMEscan analysis relative to control.

Experiment [4] relates to Proto-oncogene tyrosine-protein kinase receptor Ret (Homo sapiens), P07949 [M918T]. Briefly: Inhibition of RET M918T mutant (unknown origin) assessed as residual activity at 1000 nM by KINOMEscan analysis relative to control.
Sequence of Proto-oncogene tyrosine-protein kinase receptor Ret (Homo sapiens), P07949 [M918T] (P07949 whole entry M918T): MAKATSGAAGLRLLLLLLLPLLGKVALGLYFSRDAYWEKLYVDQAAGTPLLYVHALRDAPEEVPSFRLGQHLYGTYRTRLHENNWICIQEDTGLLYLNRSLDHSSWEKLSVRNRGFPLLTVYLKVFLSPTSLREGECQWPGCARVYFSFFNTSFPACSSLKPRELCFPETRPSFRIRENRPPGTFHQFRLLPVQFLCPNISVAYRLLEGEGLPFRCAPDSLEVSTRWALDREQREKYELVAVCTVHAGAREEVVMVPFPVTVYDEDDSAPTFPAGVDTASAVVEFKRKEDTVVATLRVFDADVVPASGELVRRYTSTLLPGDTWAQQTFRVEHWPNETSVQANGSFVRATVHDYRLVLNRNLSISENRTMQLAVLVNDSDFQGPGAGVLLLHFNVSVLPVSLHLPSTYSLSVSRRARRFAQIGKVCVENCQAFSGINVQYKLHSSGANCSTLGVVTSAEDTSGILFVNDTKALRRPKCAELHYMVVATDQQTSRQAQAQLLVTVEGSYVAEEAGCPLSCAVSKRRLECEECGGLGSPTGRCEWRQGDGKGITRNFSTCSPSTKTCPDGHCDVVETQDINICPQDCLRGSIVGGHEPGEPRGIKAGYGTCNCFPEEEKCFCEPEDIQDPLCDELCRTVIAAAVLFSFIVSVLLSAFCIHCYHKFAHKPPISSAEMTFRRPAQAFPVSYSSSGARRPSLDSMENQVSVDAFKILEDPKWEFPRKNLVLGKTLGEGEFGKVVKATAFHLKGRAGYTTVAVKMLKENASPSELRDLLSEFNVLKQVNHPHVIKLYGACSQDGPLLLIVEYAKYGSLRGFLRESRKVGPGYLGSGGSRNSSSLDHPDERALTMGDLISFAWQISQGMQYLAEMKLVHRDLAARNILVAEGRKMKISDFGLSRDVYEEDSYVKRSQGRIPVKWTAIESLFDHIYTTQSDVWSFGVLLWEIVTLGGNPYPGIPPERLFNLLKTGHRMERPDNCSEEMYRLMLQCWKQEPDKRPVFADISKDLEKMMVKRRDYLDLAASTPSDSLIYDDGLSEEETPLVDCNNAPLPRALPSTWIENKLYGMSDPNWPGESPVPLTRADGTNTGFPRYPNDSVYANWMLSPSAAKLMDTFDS
The test system of experiment [5] is Fibroblast growth factor receptor 3 (Homo sapiens), P22607 [G697C]. Briefly: Inhibition of FGFR3 G697C mutant (unknown origin) assessed as residual activity at 1000 nM by KINOMEscan analysis relative to control.
Sequence of Fibroblast growth factor receptor 3 (Homo sapiens), P22607 [G697C] (P22607 whole entry G697C): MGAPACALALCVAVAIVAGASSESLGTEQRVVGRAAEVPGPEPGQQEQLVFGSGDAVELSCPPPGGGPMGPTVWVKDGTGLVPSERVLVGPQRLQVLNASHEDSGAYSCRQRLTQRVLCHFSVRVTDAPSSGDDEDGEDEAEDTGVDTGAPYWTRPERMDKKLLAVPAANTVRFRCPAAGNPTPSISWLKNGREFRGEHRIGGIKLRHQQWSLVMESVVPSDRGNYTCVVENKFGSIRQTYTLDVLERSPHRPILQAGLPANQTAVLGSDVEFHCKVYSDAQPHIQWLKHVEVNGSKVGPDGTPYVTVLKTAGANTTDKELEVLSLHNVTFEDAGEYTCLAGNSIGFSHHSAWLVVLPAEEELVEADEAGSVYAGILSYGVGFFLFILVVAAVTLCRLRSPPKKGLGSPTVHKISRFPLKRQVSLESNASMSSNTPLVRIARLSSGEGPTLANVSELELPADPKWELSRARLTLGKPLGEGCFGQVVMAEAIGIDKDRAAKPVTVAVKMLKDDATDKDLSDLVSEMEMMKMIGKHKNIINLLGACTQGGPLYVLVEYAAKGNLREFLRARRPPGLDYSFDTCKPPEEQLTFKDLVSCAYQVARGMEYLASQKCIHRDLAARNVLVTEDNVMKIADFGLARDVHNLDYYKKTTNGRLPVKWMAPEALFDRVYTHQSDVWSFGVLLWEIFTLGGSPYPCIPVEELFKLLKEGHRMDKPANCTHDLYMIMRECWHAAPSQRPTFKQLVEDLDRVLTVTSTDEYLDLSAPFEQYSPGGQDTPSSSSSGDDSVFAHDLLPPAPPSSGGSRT
Experiment [6] concerns the target T2, Myotonin-protein kinase (Homo sapiens) (UniProt Q09013).
T2 sequence (whole entry): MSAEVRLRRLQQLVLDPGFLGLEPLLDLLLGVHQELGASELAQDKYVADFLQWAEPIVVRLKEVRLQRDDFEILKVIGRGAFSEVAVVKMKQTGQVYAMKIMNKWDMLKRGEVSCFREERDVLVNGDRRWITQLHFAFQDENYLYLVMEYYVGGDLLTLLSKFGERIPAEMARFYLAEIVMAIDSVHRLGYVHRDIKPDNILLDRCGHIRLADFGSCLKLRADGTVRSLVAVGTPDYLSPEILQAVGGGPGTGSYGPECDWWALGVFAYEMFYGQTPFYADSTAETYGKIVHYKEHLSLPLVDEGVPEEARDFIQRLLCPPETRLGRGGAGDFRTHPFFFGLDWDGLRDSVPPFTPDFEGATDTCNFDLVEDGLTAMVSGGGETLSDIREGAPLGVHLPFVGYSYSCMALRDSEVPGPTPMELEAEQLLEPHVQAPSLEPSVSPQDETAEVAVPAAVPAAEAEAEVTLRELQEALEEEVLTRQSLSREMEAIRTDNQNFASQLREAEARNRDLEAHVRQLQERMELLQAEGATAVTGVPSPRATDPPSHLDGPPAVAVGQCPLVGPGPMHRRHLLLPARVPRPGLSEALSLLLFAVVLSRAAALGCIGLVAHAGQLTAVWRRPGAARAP
Nature of the experiment: Inhibition of DMPK (unknown origin) assessed as residual activity at 1000 nM by KINOMEscan analysis relative to control.

Experiment [7] has as its target T3, Serine/threonine-protein kinase TAO1 (Homo sapiens) (UniProt Q7L7X3).
T3 sequence (whole entry): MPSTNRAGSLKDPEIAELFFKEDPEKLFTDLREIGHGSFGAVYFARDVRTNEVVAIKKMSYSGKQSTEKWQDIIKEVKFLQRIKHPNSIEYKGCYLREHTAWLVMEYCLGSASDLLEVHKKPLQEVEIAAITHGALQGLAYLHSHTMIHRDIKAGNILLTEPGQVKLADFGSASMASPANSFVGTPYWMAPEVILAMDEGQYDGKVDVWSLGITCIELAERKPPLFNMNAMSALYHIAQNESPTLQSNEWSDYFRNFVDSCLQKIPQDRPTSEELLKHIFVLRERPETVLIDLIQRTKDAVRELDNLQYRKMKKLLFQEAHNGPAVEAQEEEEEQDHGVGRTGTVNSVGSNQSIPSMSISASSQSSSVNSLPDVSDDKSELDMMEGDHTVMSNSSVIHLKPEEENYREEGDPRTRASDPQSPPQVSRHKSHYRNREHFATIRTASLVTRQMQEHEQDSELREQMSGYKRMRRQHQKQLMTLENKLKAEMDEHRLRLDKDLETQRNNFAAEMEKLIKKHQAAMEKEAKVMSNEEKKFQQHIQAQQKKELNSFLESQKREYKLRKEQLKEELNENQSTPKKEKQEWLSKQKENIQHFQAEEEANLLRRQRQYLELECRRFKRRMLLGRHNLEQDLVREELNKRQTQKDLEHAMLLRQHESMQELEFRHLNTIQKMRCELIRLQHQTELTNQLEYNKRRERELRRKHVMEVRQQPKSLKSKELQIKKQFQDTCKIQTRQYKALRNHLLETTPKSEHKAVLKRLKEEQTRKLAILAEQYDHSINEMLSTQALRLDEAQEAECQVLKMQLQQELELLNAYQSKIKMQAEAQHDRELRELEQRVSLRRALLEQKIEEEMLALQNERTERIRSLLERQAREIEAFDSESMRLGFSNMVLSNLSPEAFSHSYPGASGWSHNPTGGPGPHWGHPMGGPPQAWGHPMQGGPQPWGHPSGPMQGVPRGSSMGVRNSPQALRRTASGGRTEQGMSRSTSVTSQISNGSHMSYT
Nature of the experiment: Inhibition of TAOK1 (unknown origin) assessed as residual activity at 1000 nM by KINOMEscan analysis relative to control.

The target in experiment [8] is Tyrosine-protein kinase Fyn (Homo sapiens) (UniProt P06241). Nature of the experiment: Inhibition of FYN (unknown origin) assessed as residual activity at 1000 nM by KINOMEscan analysis relative to control.
Sequence of Tyrosine-protein kinase Fyn (Homo sapiens) (P06241 2-537 limits assumed): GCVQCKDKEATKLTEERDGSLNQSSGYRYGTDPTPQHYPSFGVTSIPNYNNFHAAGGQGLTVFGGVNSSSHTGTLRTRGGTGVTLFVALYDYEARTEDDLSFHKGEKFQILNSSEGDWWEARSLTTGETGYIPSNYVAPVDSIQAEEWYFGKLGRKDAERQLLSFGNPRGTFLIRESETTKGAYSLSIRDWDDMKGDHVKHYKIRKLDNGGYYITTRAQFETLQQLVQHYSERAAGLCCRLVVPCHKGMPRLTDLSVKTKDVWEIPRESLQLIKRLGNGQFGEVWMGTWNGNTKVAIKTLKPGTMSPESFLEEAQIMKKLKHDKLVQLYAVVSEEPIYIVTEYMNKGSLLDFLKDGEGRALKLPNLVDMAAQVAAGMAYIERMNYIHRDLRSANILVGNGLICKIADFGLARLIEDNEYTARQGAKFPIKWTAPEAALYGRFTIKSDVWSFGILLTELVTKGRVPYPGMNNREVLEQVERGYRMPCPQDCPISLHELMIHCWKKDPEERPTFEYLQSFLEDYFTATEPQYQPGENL

Sequence of Interferon-induced, double-stranded RNA-activated protein kinase (Homo sapiens) (P19525 whole entry, canonical isoform): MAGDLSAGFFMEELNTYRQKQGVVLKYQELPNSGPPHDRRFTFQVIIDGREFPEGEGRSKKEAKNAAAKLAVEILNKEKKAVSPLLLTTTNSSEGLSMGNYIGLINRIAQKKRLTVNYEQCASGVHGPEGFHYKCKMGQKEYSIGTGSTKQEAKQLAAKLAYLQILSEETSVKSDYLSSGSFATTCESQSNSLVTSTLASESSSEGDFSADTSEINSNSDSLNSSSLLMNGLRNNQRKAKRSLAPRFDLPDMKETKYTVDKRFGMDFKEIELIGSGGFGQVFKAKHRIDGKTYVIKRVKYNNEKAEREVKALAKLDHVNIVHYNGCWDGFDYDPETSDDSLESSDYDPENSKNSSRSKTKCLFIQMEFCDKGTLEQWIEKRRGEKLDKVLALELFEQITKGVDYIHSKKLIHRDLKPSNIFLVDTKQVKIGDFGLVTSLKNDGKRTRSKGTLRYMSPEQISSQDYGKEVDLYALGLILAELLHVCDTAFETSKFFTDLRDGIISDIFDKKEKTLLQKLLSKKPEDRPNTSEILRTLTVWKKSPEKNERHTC

Regarding `COc1cc2nc(C)nc(N[C@H](C)c3cccc(-c4cn[nH]c4)c3)c2cc1OC`, the Activity in experiment [1] was 72%; in experiment [2], 63%; in experiment [3], 80%; in experiment [4] it was 60%; in experiment [5], 35%; in experiment [6], 87%. For the same compound, the Activity in experiment [7] is 100%; in experiment [8], 72%.

Turning to `COc1cc2ncnc(N[C@H](C)c3cccc4ccccc34)c2cc1OC`, the Activity is 92% in experiment [1]; 96% in experiment [2]; 95% in experiment [3]; 100% in experiment [4]; 100% in experiment [5]; 100% in experiment [6]. Further, the Activity in experiment [7] is 89%; in experiment [8], 100%.
